Source: patent US20200323950A1, “ANTIBACTERIAL PEPTIDES AND COMBINATIONS FOR CO-THERAPY” (priority 2017, published 2020)
In brackets after ≈: the same amount, converted by molar mass. *1 amine or outer side, *2 acyl side, *3 side chain or, on linkers, in order; H or OH if unused. Bridges are numbered along the chain shown (N, C = ends). Roman numbers before positions name the chains, in order. [ ]: non-standard residue; d: D form. The star is where a group is joined. Maleimide(3,4-diyl) = O=C1NC(=O)C([*:2])=C1[*:1]; Ac6c = NC1(C(=O)O)CCCCC1; Dab = NCC[C@H](N)C(=O)O; NHNH2 = NN*

Legend:
[1] = test system: P. aeruginosa ATCC 47085; assay: Antibacterial assay (MIC); assay type: cell-based; conditions: P. aeruginosa ATCC 47085, MHB, 37° C.
Protocol: (§1) Antibacterial assay. Antibacterial assays are undertaken to determine the minimal inhibitory concentrations (MIC) as described previouslyl^6.
(§2) Antibacterial activity. Each C-terminal modified PrAMP DTM-linked tetramer is assayed against nosocomial Gram-negative bacteria, including E. coli ATCC 29222, K. pneumoniae ATCC 13883, A. baumannii ATCC 19606 and P. aeruginosa ATCC 47085.

[2] = test system: A. baumannii ATCC 19606; assay: Antibacterial assay (MIC); assay type: cell-based; conditions: A. baumannii ATCC 19606, MHB, 37° C.
Protocol: as §1, §2

[3] = test system: E. coli ATCC 29222; assay: Antibacterial assay (MIC); assay type: cell-based; conditions: E. coli ATCC 29222, MHB, 37° C.
Protocol: as §1, §2

[4] = test system: K. pneumoniae ATCC 13883; assay: Antibacterial assay (MIC); assay type: cell-based; conditions: K. pneumoniae ATCC 13883, MHB, 37° C.
Protocol: as §1, §2

[5] = test system: panel of Gram-negative nosocomial bacteria (E. coli, K. pneumoniae, A. baumannii, P. aeruginosa); assay: Antibacterial assay (MIC), ranges over the panel; assay type: cell-based; conditions: against E. coli, A. baumannii and P. aeruginosa
Protocol: as §1, §2

[6] = test system: multidrug-resistant Acinetobacter baumannii BAA-1605; assay: microbe, parasite or virus in culture; conditions: BAA1605
[7] = test system: K. pneumoniae K97/09; assay: Bacteremia Synergy Assay 1 (mouse systemic infection); assay type: in vivo; conditions: 30 mg/kg sc 3 times (Group 2)
Protocol: In vivo Studies. Animals. Assays 1-2. NMRI (Naval Medical Research Institute) BR or CD-1 mice (Toxi-Coop Zrt, Budapest, Hungary) were housed in plastic type 2 cages, 3-5 mice per cage, on softwood granules as bedding. The room was kept between 21° C. and 25° C. with 12 h light:12 h dark cycles. The animals had free access to tap water and pelleted rodent food. Upon completion of the experiments, surviving mice were euthanized by diethyl ether inhalation. Animals were maintained and handled in accordance with the recommendations of the Guidelines for the Care and Use of Laboratory Animals, and the protocols were approved by the Animal Care Committee of Semmelweis University. The planned 15 treatment groups of mice were divided roughly equally into two assays with 8 and 7 treatment groups and untreated controls in each assay for safe and humane handling of large numbers of mice.
Infection models. NMRI mice weighing approximately 20 g (4 weeks old) were infected by intraperitoneal (ip) injection of 4×10^8 CFU/g K. pneumoniae K97/09. Mice were randomly allocated to 8 and […] groups (5 mice per group).
Bacteremia Synergy Assay 1.
Group 1: phosphate buffered saline (PBS) subcutaneously (sc) 1 h after infection. Group 2: imipenem 30 mg/kg sc at 2, 14 and 26 h after infection. […]
Survival was recorded hourly 24-36 h after infection. […]

[8] = test system: multidrug-resistant Klebsiella pneumoniae K97/09; assay: microbe, parasite or virus in culture
[9] = test system: Acinetobacter baumannii BAA-1605; assay type: cell-based; conditions: A. baumannii BAA-1605
Protocol: In vitro activity and synergy. Minimal inhibitory concentration (MIC) assays were performed using sterile 96-well polypropylene plates in a final volume of 100 mL. Briefly, 50 μL of midlogarithmic phase bacterial cultures were diluted to 5×10^5 CFU/mL in Mueller-Hinton broth (MHB) and then added to 50 μL of the serially diluted antibiotic. […] MICs were identified as the lowest antimicrobial concentrations at which turbidity was not observed. Antimicrobial synergy was determined by evaluating the fractional inhibitory concentration (FIC) index and was characterized by a conventional checkerboard assay (Fernandez-Cuenca et al., 2003).

[10] = test system: Klebsiella pneumoniae K97/09; assay: Checkerboard synergy assay (FIC index); assay type: cell-based; conditions: K. pneumoniae K97/09
Protocol: In vitro activity and synergy. Minimal inhibitory concentration (MIC) assays were performed using sterile 96-well polypropylene plates in a final volume of […]. Briefly, 50 μL of midlogarithmic phase bacterial cultures were diluted to 5×10^5 CFU/mL in Mueller-Hinton broth (MHB) and then added to 50 μL of the serially diluted antibiotic. The highest A3-APO and other test compound concentration evaluated was 256 mg/L. Cultures were incubated at 37° C. for 16-20 h without shaking. MICs were identified as the lowest antimicrobial concentrations at which turbidity was not observed. Antimicrobial synergy was determined by evaluating the fractional inhibitory concentration (FIC) index and was characterized by a conventional checkerboard assay (Fernandez-Cuenca et al., 2003). Bacteria grown to mid-logarithmic phase in MHB were pre-incubated with serially diluted concentrations of peptides such as A3-APO, and the antimicrobial controls, imipenem, colistin or meropenem.
The sum of the FICs (Σ FIC) was calculated with the equation Σ FIC=FICA+FICB=(CA/MICA)+(CB/MICB), where MICA and MICB are the MICs of antimicrobial A and B alone, respectively, and CA and CB are the concentrations of the drugs when combined, respectively. Synergy was defined as a Σ FICs≤0.5 and additive activity was defined as a Σ FICs>0.5≤1.0.

[11] = target: bacterial DnaK (Escherichia coli, UniProt P0A6Y8); conditions: Cassone et al., 2008; cited from earlier work
[12] = test system: S. typhimurium; assay: Synergy results for co-administration of A3-APO (ARV-1501); assay type: cell-based; conditions: antibiotic co-administered with A3-APO (ARV-1501)

bacterial DnaK, sequence (P0A6Y8 whole entry): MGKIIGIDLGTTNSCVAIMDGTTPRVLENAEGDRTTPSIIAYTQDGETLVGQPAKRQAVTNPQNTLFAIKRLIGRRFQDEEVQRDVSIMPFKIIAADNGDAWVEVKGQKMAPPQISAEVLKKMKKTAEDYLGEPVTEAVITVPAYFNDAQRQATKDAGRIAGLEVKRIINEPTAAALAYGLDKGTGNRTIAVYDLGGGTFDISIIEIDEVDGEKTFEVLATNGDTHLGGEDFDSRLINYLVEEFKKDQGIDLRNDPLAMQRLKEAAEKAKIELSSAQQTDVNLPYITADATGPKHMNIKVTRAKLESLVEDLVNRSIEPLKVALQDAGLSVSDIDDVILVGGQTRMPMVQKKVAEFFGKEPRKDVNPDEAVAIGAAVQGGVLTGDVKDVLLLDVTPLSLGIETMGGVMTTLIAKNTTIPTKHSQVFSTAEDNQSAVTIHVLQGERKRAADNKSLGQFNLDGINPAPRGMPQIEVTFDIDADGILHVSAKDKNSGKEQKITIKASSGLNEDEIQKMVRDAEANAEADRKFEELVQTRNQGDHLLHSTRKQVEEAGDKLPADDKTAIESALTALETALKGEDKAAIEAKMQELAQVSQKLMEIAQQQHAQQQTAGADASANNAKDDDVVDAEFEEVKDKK

I: H-[Ac6c]RPDKPRPYLPRPRPPRPVR[Dab]C-NHNH2 / II: H-[Ac6c]RPDKPRPYLPRPRPPRPVR[Dab]C-NHNH2 / III: H-[Ac6c]RPDKPRPYLPRPRPPRPVR / IV: H-[Ac6c]RPDKPRPYLPRPRPPRPVR (amide I:21-III:C, II:21-IV:C; linker I:22-II:22 via Maleimide(3,4-diyl)) [tetramer-DTM-NHNH2]
Antibacterial activity, MIC [1]: 1.14 ± 0.03 µM
Antibacterial activity, MIC [2]: 2.33 ± 0.48 µM
Antibacterial activity, MIC [3]: 0.93 ± 0.02 µM
Antibacterial activity, MIC [4]: 0.49 ± 0.01 µM
MIC (range over the bacteria) [5]: 0.49 to 2.33 µM

C[C@@H](O)[C@H]1C(=O)N2C(C(=O)O)=C(SCCN=CN)C[C@H]12 [imipenem]
MIC [6]: 64 µg/mL (≈ 214 µM)
survival improvement at 36 h over untreated controls [7]: 40%
MIC [8]: > 256 µg/mL

I: H-[Ac6c]RPDKPRPYLGRPRPPRPVR[Dab]-NH2 / II: H-[Ac6c]RPDKPRPYLGRPRPPRPVR (amide I:21-II:C) [Gly11, (H-Chex-Arg-Pro-Asp-Lys-Pro-Arg-Pro-Tyr-Leu-Gly-Arg-Pro-Arg-Pro-Pro-Arg-Pro-Val-Arg)2-Dab-NH2]
improvement in the MIC values when added together with imipenem or colistin [9]: failed to exert any improvement
improvement in the MIC values when added together with imipenem or colistin [10]: failed to exert any improvement
DnaK binding [11]: fails to bind bacterial DnaK

Cc1cc(NS(=O)(=O)c2ccc(N)cc2)no1 [sulfamethoxazole]
Outcome [12]: MIC lowered with priming
